{"source": "patent US20250295648A1", "about": "(priority 2024, published 2025)", "test_system": "L-DOPA-induced dyskinesia in Parkinson's disease patients", "assay": "Unified Dyskinesia Rating Scale (UDysRS) after 150% L-DOPA challenge", "details": "for UDysRS Part 3+4 score, change from baseline: PPS", "key": {"[1]": {"details": "5 patients co-treated with amantadine"}, "[2]": {"details": "Full analysis set, Visit 2 Baseline"}, "[3]": {"details": "Full analysis set, Visit 6 Clinic Efficacy Visit"}, "[4]": {"details": "Full analysis set, Visit 7 Clinic Efficacy Visit"}, "[5]": {"details": "Full analysis set, average of assessment sessions Part 3 and Part 4, Visit 2 Baseline"}, "[6]": {"details": "Full analysis set, average of assessment sessions Part 3 and Part 4, Visit 6 Clinic Efficacy Visit"}, "[7]": {"details": "Full analysis set, average of assessment sessions Part 3 and Part 4, Visit 7 Clinic Efficacy Visit"}, "[8]": {"details": "Full analysis set, average of assessment sessions, highest item score, Visit 2 Baseline"}, "[9]": {"details": "Full analysis set, average of assessment sessions, highest item score, Visit 6 Clinic Efficacy Visit"}, "[10]": {"details": "Full analysis set, average of assessment sessions, highest item score, Visit 7 Clinic Efficacy Visit"}, "[11]": {"details": "Full analysis set, most severe session, highest item score, Visit 2 Baseline"}, "[12]": {"details": "Full analysis set, most severe session, highest item score, Visit 6 Clinic Efficacy Visit"}, "[13]": {"details": "Full analysis set, most severe session, highest item score, Visit 7 Clinic Efficacy Visit"}, "[14]": {"details": "Visit 2 Baseline, per protocol analysis set, N = 15"}, "[15]": {"details": "Visit 6 Clinic Efficacy Visit (Day 28), per protocol analysis set, N = 15"}}, "experimental": "Patients were rated for dyskinesia at baseline and on days 28 (at end of up-titration period) and 42 (end of stable dosing period). Because the level of dyskinesia experienced by patients can vary over time, they were given 150% (i.e., 1.5×) of their regular L-DOPA dose (up to a maximum of 250 mg) as a challenge 30 min before each dyskinesia assessment to improve comparability between patients and between visits. Patients were filmed 30, 60 and 90 min after dosing with L-DOPA (˜5 min of filming each time). LID was assessed using the Unified Dyskinesia Rating Scale (UDysRS). Changes from baseline are shown for total score (i.e., Parts 1 to 4), for total objective score (i.e., Parts 3+4), and for the sum of Part 3 objective impairment assessment scores. Because objective LID assessment was carried out at 3 time-points (30, 60 and 90 min) following L-DOPA challenge, the above parameters were analyzed based on the most severe of the three scores as well as on the average score of the 3 time points.\nThe patient took 150% of their normal L-DOPA dose 30 minutes prior to the start of efficacy assessments (UDysRS) at Day 1 (Visit 2), Day 28 (Visit 6) and Day 42 (Visit 7).\nThe UDysRS is a rating instrument designed to assess the core features of dyskinesia in Parkinson's Disease. The UDysRS consists of 4 parts: • r. Part I, historical disability with regard to the patient's perceptions of the impact on activities of ADL of on-dyskinesia. • s. Part II, historical disability with regard to the patient's perceptions of the impact on ADL of off-dystonia. • t. Part III, objective impairment, which assesses severity of dyskinesia, affected body parts, and type of impairment (choreic vs. dystonic). • u. Part IV, objective disability, based on an evaluation of Part III activities.\nEach item in the UDysRS is scored from 0 to 4, with a possible maximum total score of 104.\nThe UDysRS assessment would be performed at baseline (Day 1, Visit 2), Day 28 and Day 42 (Visits 6 and 7) starting approximately 30 minutes after the L-DOPA challenge on these days.\nThe data for all 3 assessments performed at each visit would be entered in the eCRF and the Investigator will highlight which of the assessments, corresponding to the assessment where the patient had most severe dyskinesia, that would be used in the descriptive summaries of data.\nChange from baseline in the UDysRS total score to Visit 6 (Day 28) and Visit 7 (Day 42) respectively would be summarized using descriptive statistics. […] The same analysis would be done for UDysRS total objective score Part III and IV only.\nThe baseline value of the dependent variable has been included in the model as a continuous covariate."}
{"molecule": "Cc1ccc(CNCC2(F)CCN(C(=O)c3ccc(F)c(Cl)c3)CC2)nc1", "note": "[NLX-112, (3-chloro-4-fluoro-phenyl)-[4-fluoro-4-{[(5-methyl-pyridin-2-ylmethyl)-amino]-methyl}piperidin-1-yl]methanone]", "values": [{"measurement": "UDysRS Part 3 + 4, mean change from baseline", "setting": "[1]", "value": "−4.4"}, {"measurement": "UDysRS Total, mean change from baseline", "setting": "[1]", "value": "−4.0"}, {"measurement": "UDysRS Part 3+4 score, change from baseline", "setting": "Day 28, average of 3 assessments (30, 60, 90 min), p=0.0065", "value": "−2.49", "unit": "points"}, {"measurement": "UDysRS total score (Parts 1-4), change from baseline", "setting": "Day 28, most severe assessment, PPS n=15, p=0.0281 vs baseline", "value": "−4.1", "unit": "points"}, {"measurement": "UDysRS Part 3+4 score, change from baseline", "setting": "Day 28, most severe assessment, not statistically significant", "value": "−1.7", "unit": "points"}, {"measurement": "UDysRS sum of Part 3 items, average of all 3 assessments, vs baseline", "setting": "Day 28 and Day 42, within NLX-112 group", "value": "significant reduction"}, {"measurement": "UDysRS total score or total objective (Parts 3 and 4) score, change from baseline, NLX-112 vs placebo", "setting": "Day 28 or Day 42", "value": "no significant differences"}, {"measurement": "UDysRS Part 3+4 score, change from baseline", "setting": "Day 42, average of 3 assessments (30, 60, 90 min), p=0.0005", "value": "−3.31", "unit": "points"}, {"measurement": "UDysRS total score (Parts 1-4), change from baseline", "setting": "Day 42, most severe assessment, PPS n=15, p=0.0016 vs baseline", "value": "−6.3", "unit": "points"}, {"measurement": "UDysRS Part 3+4 score, change from baseline", "setting": "Day 42, most severe assessment, p=0.0038 vs baseline", "value": "−3.1", "unit": "points"}, {"measurement": "UDysRS Parts 1, 2, 3, and 4 most severe, collected value, mean", "setting": "[2]", "value": 31.8}, {"measurement": "UDysRS Parts 1, 2, 3, and 4 most severe, collected value, median", "setting": "[2]", "value": 31.0}, {"measurement": "UDysRS Parts 1, 2, 3, and 4 most severe, absolute change from baseline, mean", "setting": "[3]", "value": "−4.1"}, {"measurement": "UDysRS Parts 1, 2, 3, and 4 most severe, absolute change from baseline, median", "setting": "[3]", "value": "−2.0"}, {"measurement": "UDysRS Parts 1, 2, 3, and 4 most severe, collected value, mean", "setting": "[3]", "value": 27.5}, {"measurement": "UDysRS Parts 1, 2, 3, and 4 most severe, collected value, median", "setting": "[3]", "value": 28.0}, {"measurement": "UDysRS Parts 1, 2, 3, and 4 most severe, relative change from baseline (%), mean", "setting": "[3]", "value": "−10.2", "unit": "%"}, {"measurement": "UDysRS Parts 1, 2, 3, and 4 most severe, relative change from baseline (%), median", "setting": "[3]", "value": "−6.45", "unit": "%"}, {"measurement": "UDysRS Parts 1, 2, 3, and 4 most severe, absolute change from baseline, mean", "setting": "[4]", "value": "−6.3"}, {"measurement": "UDysRS Parts 1, 2, 3, and 4 most severe, absolute change from baseline, median", "setting": "[4]", "value": "−8.0"}, {"measurement": "UDysRS Parts 1, 2, 3, and 4 most severe, collected value, mean", "setting": "[4]", "value": 25.3}, {"measurement": "UDysRS Parts 1, 2, 3, and 4 most severe, collected value, median", "setting": "[4]", "value": 24.0}, {"measurement": "UDysRS Parts 1, 2, 3, and 4 most severe, relative change from baseline (%), mean", "setting": "[4]", "value": "−19.0", "unit": "%"}, {"measurement": "UDysRS Parts 1, 2, 3, and 4 most severe, relative change from baseline (%), median", "setting": "[4]", "value": "−25.8", "unit": "%"}, {"measurement": "UDysRS Parts 1, 2, 3, and 4 average, collected value, mean", "setting": "[5]", "value": 30.43}, {"measurement": "UDysRS Parts 1, 2, 3, and 4 average, collected value, median", "setting": "[5]", "value": 29.67}, {"measurement": "UDysRS Parts 1, 2, 3, and 4 average, absolute change from baseline, mean", "setting": "[6]", "value": "−4.82"}, {"measurement": "UDysRS Parts 1, 2, 3, and 4 average, absolute change from baseline, median", "setting": "[6]", "value": "−3.00"}, {"measurement": "UDysRS Parts 1, 2, 3, and 4 average, collected value, mean", "setting": "[6]", "value": 25.33}, {"measurement": "UDysRS Parts 1, 2, 3, and 4 average, collected value, median", "setting": "[6]", "value": 25.33}, {"measurement": "UDysRS Parts 1, 2, 3, and 4 average, relative change from baseline (%), mean", "setting": "[6]", "value": "−9.33", "unit": "%"}, {"measurement": "UDysRS Parts 1, 2, 3, and 4 average, relative change from baseline (%), median", "setting": "[6]", "value": "−10.6", "unit": "%"}, {"measurement": "UDysRS Parts 1, 2, 3, and 4 average, absolute change from baseline, mean", "setting": "[7]", "value": "−6.51"}, {"measurement": "UDysRS Parts 1, 2, 3, and 4 average, absolute change from baseline, median", "setting": "[7]", "value": "−7.67"}, {"measurement": "UDysRS Parts 1, 2, 3, and 4 average, collected value, mean", "setting": "[7]", "value": 23.64}, {"measurement": "UDysRS Parts 1, 2, 3, and 4 average, collected value, median", "setting": "[7]", "value": 23.00}, {"measurement": "UDysRS Parts 1, 2, 3, and 4 average, relative change from baseline (%), mean", "setting": "[7]", "value": "−19.5", "unit": "%"}, {"measurement": "UDysRS Parts 1, 2, 3, and 4 average, relative change from baseline (%), median", "setting": "[7]", "value": "−21.9", "unit": "%"}, {"measurement": "UDysRS Parts 3 and 4 average, collected value, mean", "setting": "[8]", "value": 13.98}, {"measurement": "UDysRS Parts 3 and 4 average, collected value, median", "setting": "[8]", "value": 13.17}, {"measurement": "UDysRS Parts 3 and 4 average, absolute change from baseline, mean", "setting": "[9]", "value": "−2.49"}, {"measurement": "UDysRS Parts 3 and 4 average, absolute change from baseline, median", "setting": "[9]", "value": "−1.67"}, {"measurement": "UDysRS Parts 3 and 4 average, collected value, mean", "setting": "[9]", "value": 11.60}, {"measurement": "UDysRS Parts 3 and 4 average, collected value, median", "setting": "[9]", "value": 10.33}, {"measurement": "UDysRS Parts 3 and 4 average, relative change from baseline (%), mean", "setting": "[9]", "value": "−17.3", "unit": "%"}, {"measurement": "UDysRS Parts 3 and 4 average, relative change from baseline (%), median", "setting": "[9]", "value": "−20.0", "unit": "%"}, {"measurement": "UDysRS Parts 3 and 4 average, absolute change from baseline, mean", "setting": "[10]", "value": "−3.31"}, {"measurement": "UDysRS Parts 3 and 4 average, absolute change from baseline, median", "setting": "[10]", "value": "−3.33"}, {"measurement": "UDysRS Parts 3 and 4 average, collected value, mean", "setting": "[10]", "value": 10.78}, {"measurement": "UDysRS Parts 3 and 4 average, collected value, median", "setting": "[10]", "value": 9.67}, {"measurement": "UDysRS Parts 3 and 4 average, relative change from baseline (%), mean", "setting": "[10]", "value": "−25.3", "unit": "%"}, {"measurement": "UDysRS Parts 3 and 4 average, relative change from baseline (%), median", "setting": "[10]", "value": "−31.5", "unit": "%"}, {"measurement": "UDysRS Parts 3 and 4 most severe, collected value, mean", "setting": "[11]", "value": 15.3}, {"measurement": "UDysRS Parts 3 and 4 most severe, collected value, median", "setting": "[11]", "value": 13.5}, {"measurement": "UDysRS Parts 3 and 4 most severe, absolute change from baseline, mean", "setting": "[12]", "value": "−1.7"}, {"measurement": "UDysRS Parts 3 and 4 most severe, absolute change from baseline, median", "setting": "[12]", "value": "−1.0"}, {"measurement": "UDysRS Parts 3 and 4 most severe, collected value, mean", "setting": "[12]", "value": 13.8}, {"measurement": "UDysRS Parts 3 and 4 most severe, collected value, median", "setting": "[12]", "value": 12.0}, {"measurement": "UDysRS Parts 3 and 4 most severe, relative change from baseline (%), mean", "setting": "[12]", "value": "−15.8", "unit": "%"}, {"measurement": "UDysRS Parts 3 and 4 most severe, relative change from baseline (%), median", "setting": "[12]", "value": "−8.33", "unit": "%"}, {"measurement": "UDysRS Parts 3 and 4 most severe, absolute change from baseline, mean", "setting": "[13]", "value": "−3.1"}, {"measurement": "UDysRS Parts 3 and 4 most severe, absolute change from baseline, median", "setting": "[13]", "value": "−4.0"}, {"measurement": "UDysRS Parts 3 and 4 most severe, collected value, mean", "setting": "[13]", "value": 12.4}, {"measurement": "UDysRS Parts 3 and 4 most severe, collected value, median", "setting": "[13]", "value": 11.0}, {"measurement": "UDysRS Parts 3 and 4 most severe, relative change from baseline (%), mean", "setting": "[13]", "value": "−21.0", "unit": "%"}, {"measurement": "UDysRS Parts 3 and 4 most severe, relative change from baseline (%), median", "setting": "[13]", "value": "−31.6", "unit": "%"}, {"measurement": "UDysRS Parts 1, 2, 3, and 4 average, collected value, mean", "setting": "[14]", "value": 30.16}, {"measurement": "UDysRS Parts 1, 2, 3, and 4 average, collected value, median", "setting": "[14]", "value": 29.33}, {"measurement": "UDysRS Parts 1, 2, 3, and 4 most severe, collected value, mean", "setting": "[14]", "value": 31.6}, {"measurement": "UDysRS Parts 1, 2, 3, and 4 most severe, collected value, median", "setting": "[14]", "value": 31.0}, {"measurement": "UDysRS Parts 3 and 4 average, collected value, mean", "setting": "[14]", "value": 14.09}, {"measurement": "UDysRS Parts 3 and 4 average, collected value, median", "setting": "[14]", "value": 13.00}, {"measurement": "UDysRS Parts 3 and 4 most severe, collected value, mean", "setting": "[14]", "value": 15.5}, {"measurement": "UDysRS Parts 3 and 4 most severe, collected value, median", "setting": "[14]", "value": 14.0}, {"measurement": "UDysRS Parts 1, 2, 3, and 4 average, absolute change from baseline, mean", "setting": "[15]", "value": "−4.82"}, {"measurement": "UDysRS Parts 1, 2, 3, and 4 average, absolute change from baseline, median", "setting": "[15]", "value": "−3.00"}, {"measurement": "UDysRS Parts 1, 2, 3, and 4 average, collected value, mean", "setting": "[15]", "value": 25.33}, {"measurement": "UDysRS Parts 1, 2, 3, and 4 average, collected value, median", "setting": "[15]", "value": 25.33}, {"measurement": "UDysRS Parts 1, 2, 3, and 4 average, relative change from baseline (%), mean", "setting": "[15]", "value": "−9.33", "unit": "%"}, {"measurement": "UDysRS Parts 1, 2, 3, and 4 average, relative change from baseline (%), median", "setting": "[15]", "value": "−10.6", "unit": "%"}, {"measurement": "UDysRS Parts 1, 2, 3, and 4 most severe, absolute change from baseline, mean", "setting": "[15]", "value": "−4.1"}, {"measurement": "UDysRS Parts 1, 2, 3, and 4 most severe, absolute change from baseline, median", "setting": "[15]", "value": "−2.0"}, {"measurement": "UDysRS Parts 1, 2, 3, and 4 most severe, collected value, mean", "setting": "[15]", "value": 27.5}, {"measurement": "UDysRS Parts 1, 2, 3, and 4 most severe, collected value, median", "setting": "[15]", "value": 28.0}, {"measurement": "UDysRS Parts 1, 2, 3, and 4 most severe, relative change from baseline (%), mean", "setting": "[15]", "value": "−10.2", "unit": "%"}, {"measurement": "UDysRS Parts 1, 2, 3, and 4 most severe, relative change from baseline (%), median", "setting": "[15]", "value": "−6.45", "unit": "%"}]}
